# Patent US8163909B2, “Substituted hydroxyethyl amine compounds as beta-secretase modulators and methods of use” (Amgen Inc., priority 2007, dated 2012)
# Where two headings read alike, the source gives them in different places.
# How the values were obtained:
# [1] = target: Beta Secretase enzyme (BACE) (Homo sapiens, UniProt P56817); assay: In vitro enzymatic BACE FRET (fluorescence resonance energy transfer) assay; type: biochemical;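 note: fluorescence read after 1 h with 50 nM quenched peptide substrate spanning the BACE cleavage site, in pH 4.2 acetate buffer containing 10% DMSO and nonionic detergent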
# Beta Secretase enzyme (BACE), sequence (P56817 46-501): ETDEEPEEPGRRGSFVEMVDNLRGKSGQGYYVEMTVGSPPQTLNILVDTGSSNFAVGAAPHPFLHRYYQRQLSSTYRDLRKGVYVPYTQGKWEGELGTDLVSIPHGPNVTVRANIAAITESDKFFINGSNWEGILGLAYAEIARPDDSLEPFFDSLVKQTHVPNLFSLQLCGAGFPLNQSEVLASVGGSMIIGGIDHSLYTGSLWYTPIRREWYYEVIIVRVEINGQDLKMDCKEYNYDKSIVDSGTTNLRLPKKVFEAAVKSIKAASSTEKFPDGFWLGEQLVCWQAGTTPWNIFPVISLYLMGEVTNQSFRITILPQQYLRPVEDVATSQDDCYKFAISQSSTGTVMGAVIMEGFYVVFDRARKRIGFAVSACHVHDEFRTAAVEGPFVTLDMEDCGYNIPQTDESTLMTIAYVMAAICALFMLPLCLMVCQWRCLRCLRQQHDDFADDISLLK
# [2] = system: Aβ40 in conditioned medium of cells stably expressing Amyloid Precursor Protein (APP); assay: In vitro BACE cell-based assay (Aβ40 in conditioned medium, sandwich ELISA); settings: Homo sapiens;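 note: compounds added as a dilution series, secreted peptide quantified by europium time-resolved fluorescence readout, potency fitted from percent of control versus compound concentration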
# [3] = target: CYP3A4 (CYP3A) (Homo sapiens, UniProt P08684); assay: in vitro; settings: microsomes, pH 7.4;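 note: inhibition of CYP3A-mediated 1-hydroxymidazolam formation after 10 min incubation with NADPH, quantified by HPLC MS relative to metabolite produced without test compound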
# CYP3A4 (CYP3A), sequence (P08684 2-503): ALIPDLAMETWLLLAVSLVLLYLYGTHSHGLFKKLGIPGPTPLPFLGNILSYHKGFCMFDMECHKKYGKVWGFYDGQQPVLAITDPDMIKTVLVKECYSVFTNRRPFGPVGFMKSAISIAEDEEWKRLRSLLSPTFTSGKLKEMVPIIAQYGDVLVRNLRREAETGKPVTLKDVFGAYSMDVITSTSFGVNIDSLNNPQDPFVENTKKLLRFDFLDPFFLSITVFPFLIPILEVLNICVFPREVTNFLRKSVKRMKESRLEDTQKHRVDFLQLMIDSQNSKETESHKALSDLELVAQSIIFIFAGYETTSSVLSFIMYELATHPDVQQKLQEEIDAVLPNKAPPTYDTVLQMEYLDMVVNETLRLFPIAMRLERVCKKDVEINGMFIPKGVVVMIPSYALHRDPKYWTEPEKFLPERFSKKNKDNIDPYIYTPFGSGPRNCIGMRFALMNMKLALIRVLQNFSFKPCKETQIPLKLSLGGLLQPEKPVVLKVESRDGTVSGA
# [4] = Microsomal stability assay, rat liver microsomes;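 note: rat liver microsomes (0.25 mg/mL) with about 1 µM compound plus 1 mM NADPH, pH 7.4, 37 °C for 30 min, parent left measured by LC-MS/MS against 0 min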
# [5] = Microsomal stability assay, human liver microsomes;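 note: pooled human liver microsomes at 0.25 mg/mL with 1 µM compound and NADPH at 37 °C, pH 7.4, for 30 min, unchanged parent quantified by LC-MS/MS against the 0 min sample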
# [6] = target: CYP2D6 (Homo sapiens, UniProt P10635); assay: CYP2D6 inhibition assay (bufuralol, pooled human liver microsomes)
# CYP2D6, sequence (P10635 whole entry): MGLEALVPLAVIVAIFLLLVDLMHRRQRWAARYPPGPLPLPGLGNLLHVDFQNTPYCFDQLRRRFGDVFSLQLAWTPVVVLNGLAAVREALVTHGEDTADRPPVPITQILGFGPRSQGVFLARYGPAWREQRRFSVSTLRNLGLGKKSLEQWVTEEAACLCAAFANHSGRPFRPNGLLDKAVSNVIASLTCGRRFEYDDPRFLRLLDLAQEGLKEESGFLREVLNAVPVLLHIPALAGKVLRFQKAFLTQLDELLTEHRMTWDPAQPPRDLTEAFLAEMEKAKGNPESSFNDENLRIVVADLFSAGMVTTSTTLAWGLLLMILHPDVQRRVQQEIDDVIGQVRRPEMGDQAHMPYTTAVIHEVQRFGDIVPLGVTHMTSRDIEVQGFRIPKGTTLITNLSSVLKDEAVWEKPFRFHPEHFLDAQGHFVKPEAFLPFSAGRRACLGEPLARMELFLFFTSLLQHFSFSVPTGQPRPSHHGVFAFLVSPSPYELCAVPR
# [7] = BACE enzyme assay, read-out: BACE1 FRET assay
# [8] = HEK293, HEK cells, read-out: HEK cell assay
# [9] = 2D6 IC50 (uM), CYP enzyme inhibition
# [10] = BACE enzyme assay IC50, read-out: BACE1 FRET assay
# [11] = HEK293, HEK cell-based assay IC50, read-out: HEK cell assay
# [12] = 2D6 IC50 (uM), CYP2D6 inhibition
# [13] = BACE enzyme assay, IC50's in uM, read-out: BACE1 FRET assay
Compound,IC50 [3] [nM],RLM ([4]; rat liver microsomal data) [µL/min/mg],HLM ([5]; human liver microsomal data) [µL/min/mg],RLM ([4]; rat liver microsomes) [µL/min/mg],HLM ([5]; human liver microsomes) [µL/min/mg],"IC50 [1, 10] [µM]","IC50 [2, 11] [µM]","IC50 [6, 12] [µM]",other results
CO[C@H](C)C(=O)N[C@@H](Cc1ccc2c(c1)OCO2)[C@H](O)CN[C@@H]1c2cc(CC(C)(C)C)cnc2OC2(CCC2)[C@@H]1F [compound 554],200,173,63,,,,,,"IC50 [1, 7]: 0.057 µM; IC50 [2, 8]: 1.02 µM; IC50 [6, 9]: 6.5 µM"
CC(=O)N[C@@H](Cc1cccc(C#N)c1)[C@H](O)CN[C@H]1CC2(CCC2)Oc2c(-c3ccncc3)cc(CC(C)(C)C)cc21 [compound 637],100,,,105,34,,,,"IC50 ([1]; read-out: BACE1 FRET assay (IC50)): 0.01 µM; IC50 ([2]; HEK293, HEK cells, read-out: HEK cell assay (IC50)): 0.004 µM; IC50 ([6]; 2D6 IC50, CYP2D6 inhibition): 2.8 µM"
Cc1cccc(CN2CCO[C@@H](C(=O)N[C@@H](Cc3ccc(F)cc3)[C@H](O)CN[C@H]3CC4(CCC4)Oc4ncc(CC(C)(C)C)cc43)C2)c1 [compound 685],200,,,283,662,0.013,0.012,3.1,
CO[C@H](C)C(=O)N[C@@H](Cc1ccc2c(c1)OCO2)[C@H](O)CN[C@H]1CC(C)(C)Oc2ncc(CC(C)(C)C)cc21 [compound 674],100,,,128,26,0.033,0.037,10.5,
CO[C@H](C)C(=O)N[C@@H](Cc1cc(F)cc(F)c1)[C@H](O)CN[C@H]1CC2(CCC2)Oc2c1cc(CC(C)(C)C)nc2-n1ccnc1 [compound 495],100,62,41,,,,,,"IC50 [1, 7]: 0.02 µM; IC50 [2, 8]: 0.08 µM; IC50 [6, 9]: 2 µM"
"COCC(=O)N[C@@H](Cc1cccc(F)c1)[C@H](O)CN[C@H]1CC2(CCC2)Oc2c(-c3ccnc(N(C)C)c3)cc(CC(C)(C)C)cc21 [Example 439, N-((1S,2R)-3-(((4S)-8-(2-(dimethylamino)-4-pyridinyl)-6-(2,2-dimethylpropyl)-3,4-dihydrospiro[chromene-2,1′-cyclobutan]-4-yl)amino)-1-(3-fluorobenzyl)-2-hydroxypropyl)-2-methoxyacetamide]",1300,,,515,601,0.02,0.005,4.1,
CO[C@H](C)C(=O)N[C@@H](Cc1ccc(F)c(F)c1)[C@H](O)CN[C@H]1CC(C)(C)Oc2ncc(CC(C)(C)C)cc21 [compound 675],2000,,,411,543,0.009,0.013,21.8,
"COCC(=O)N[C@@H](Cc1cc(F)cc(-c2nccs2)c1)[C@H](O)CN[C@H]1CC2(CCC2)Oc2ccc(CC(C)C)cc21 [compound 771, N-((1S,2R)-1-(3-fluoro-5-(1,3-thiazol-2-yl)benzyl)-2-hydroxy-3-(((4S)-6-(2-methylpropyl)-3,4-dihydrospiro[chromene-2,1′-cyclobutan]-4-yl)amino)propyl)-2-methoxyacetamide]",700,201,150,,,,,,"IC50 [1, 13]: 0.005 µM; IC50 ([2]; HEK293, HEK cell-based assay, IC50's in uM, read-out: HEK cell assay): 0.04 µM; IC50 [6, 9]: 0.5 µM"
CO[C@H](C)C(=O)N[C@@H](Cc1cccc(-c2nccs2)c1F)[C@H](O)CN[C@H]1CC2(CCC2)Oc2ncc(CC(C)(C)C)cc21 [compound 909],100,127,76,,,,,,"IC50 [1, 13]: 0.157 µM; IC50 ([2]; HEK293, cell-based assay, HEK cells, IC50's in uM, read-out: HEK cell assay): 0.052 µM; IC50 ([6]; 2D6 IC50, CYP enzyme inhibition): 0.9 µM"
COCC(=O)N[C@@H](Cc1cc(F)cc(-c2nc(C)cs2)c1)[C@H](O)CN[C@H]1CC2(CCC2)Oc2ncc(CC(C)C)cc21 [compound 733],≤ 30,,,399,249,0.008,0.021,4.5,
CC(C)(C)Cc1cnc2c(c1)[C@@H](NC[C@@H](O)[C@H](Cc1ccc(F)cc1)NC(=O)[C@H]1CN(Cc3ccccc3)CCO1)CC1(CCC1)O2 [compound 717],200,,,298,775,0.013,0.011,3.6,
